Assay results taken from patent publication US20120277209A1, “PYRAZINE COMPOUNDS AS PHOSPHODIESTERASE 10 INHIBITORS” (Amgen Inc., priority 2009, published 2012).
pIC50: −log10 of the molar value.

Molecular target: PDE10 (UniProt Q9Y233)
Assay: PDE10 enzyme inhibition, IMAP TR-FRET assay (MPDE10A7 Enzyme Activity and Inhibition)
Assay type: biochemical
Details: IC50 class against PDE10; read-out: IC50
Procedure, shortened: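 IMAP TR-FRET read-out of PDE10 hydrolysis of fluorescein-cAMP or -cGMP (60 min, room temperature), after a 30 min compound-enzyme preincubation. Enzyme source was PDE10A or tissue homogenate. Averaged IC50s are reported as five range classes.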

Molecule	pIC50
O=C(c1ccc(Oc2nccnc2C2CCCC2)cc1)c1nc2ccccc2[nH]1 [Example 220, (1H-benzo[d]imidazol-2-yl)(4-(3-cyclopentylpyrazin-2-yloxy)phenyl)methanone]	7.00 to 7.60
CC(C)(O)C1CCN(c2nccnc2Oc2ccc(Nc3nc4ccccc4s3)cc2)CC1 [Example 66, 2-(1-(3-(4-(benzo[d]thiazol-2-ylamino)phenoxy)pyrazin-2-yl)piperidin-4-yl)propan-2-ol]	> 7.60
N#CC1(c2nccnc2Oc2ccc(C(=O)c3nc4ccccc4[nH]3)cc2)CCOCC1 [Example 211, 4-(3-(4-(1H-benzo[d]imidazole-2-carbonyl)phenoxy)pyrazin-2-yl)tetrahydro-2H-pyran-4-carbonitrile]	> 7.60
FCCN1CCC(c2nccnc2Oc2ccc(Nc3nc4ccccc4s3)cc2)CC1 [Example 236, N-(4-(3-(1-(2-fluoroethyl)piperidin-4-yl)pyrazin-2-yloxy)phenyl)benzo [d]thiazol-2-amine]	> 7.60
COc1ccncc1-c1nccnc1Oc1ccc(C(=O)c2nc3ccccc3[nH]2)cc1 [Example 112, (1H-benzo[d]imidazol-2-yl)(4-(3-(4-methoxypyridin-3-yl)pyrazin-2-yloxy)phenyl)methanone]	7.00 to 7.60
c1ccc2sc(Nc3ccc(Oc4nccnc4C4CCOCC4)cc3)nc2c1 [Example 208, N-(4-(3-(tetrahydro-2H-pyran-4-yl)pyrazin-2-yloxy)phenyl)benzo[d]thiazol-2-amine]	> 7.60
COC[C@@H]1CCCN1c1nccnc1Oc1ccc(Nc2nc3ccccc3s2)cc1 [Example 57, (S)—N-(4-(3-(2-(METHOXYMETHYL)PYRROLIDIN-1-YL)PYRAZIN-2-YLOXY)PHENYL)BENZO[D]THIAZOL-2-AMINE]	> 7.60
CC(=O)N1CCC(c2nccnc2Oc2ccc(C(=O)c3nc4ccccc4[nH]3)cc2)CC1 [Example 224, 1-(4-(3-(4-(1H-BENZO[D]IMIDAZOLE-2-CARBONYL)PHENOXY)PYRAZIN-2-YL)PIPERIDIN-1-YL)ETHANONE]	> 7.60
c1ccc2sc(Nc3ccc(Oc4nccnc4-c4ccc(N5CCOCC5)cc4)cc3)nc2c1 [Example 139, N-(4-(3-(4-morpholinophenyl)pyrazin-2-yloxy)phenyl)benzo[d]thiazol-2-amine]	6.60 to 7.00
Cn1c(C(=O)c2ccc(Oc3nccnc3C3CCOCC3)cc2)nc2ccccc21 [Example 184, (1-methyl-1H-benzo[d]imidazol-2-yl)(4-(3-(tetrahydro-2H-pyran-4-yl)pyrazin-2-yloxy)phenyl)methanone]	> 7.60
COc1cnccc1-c1nccnc1Oc1ccc(Nc2nc3ccccc3s2)cc1 [Example 149, N-(4-(3-(3-methoxypyridin-4-yl)pyrazin-2-yloxy)phenyl)benzo[d]thiazol-2-amine]	> 7.60
N#Cc1ccc(-c2nccnc2Oc2ccc(Nc3nc4ccccc4s3)cc2)cn1 [Example 142, 5-(3-(4-(benzo[d]thiazol-2-ylamino)phenoxy)pyrazin-2-yl)picolinonitrile]	> 7.60
O[C@H]1CCC[C@@H](c2nccnc2Oc2ccc(Nc3nc4ccccc4s3)cc2)C1 (racemic) [Example 191, (rac)-cis-3-(3-(4-(benzo[d]thiazol-2-ylamino)phenoxy)pyrazin-2-yl)cyclohexanol]	> 7.60
1H-BENZIMIDAZOL-2-YL(4-((3-(CIS-4-HYDROXYCYCLOHEXYL)-2-PYRAZINYL)OXY)PHENYL)METHANONE AND 1H-BENZIMIDAZOL-2-YL(4-((3-(TRANS-4-HYDROXYCYCLOHEXYL)-2-PYRAZINYL)OXY)PHENYL)METHANONE [Example 188]	> 7.60
COc1cccc2nc(Nc3ccc(Oc4nccnc4C4CCOCC4)cc3)[nH]c12 [Example 209, 7-methoxy-N-(4-(3-(tetrahydro-2H-pyran-4-yl)pyrazin-2-yloxy)phenyl)-1H-benzo[d]imidazol-2-amine]	> 7.60
COCC(=O)N1CCC(c2nccnc2Oc2ccc(C(=O)c3nc4ccccc4[nH]3)cc2)CC1 [Example 232, 1-(4-(3-(4-(1H-benzo[d]imidazole-2-carbonyl)phenoxy)pyrazin-2-yl)piperidin-1-yl)-2-methoxyethanone]	> 7.60
CC1CN(c2nccnc2Oc2ccc(Nc3nc4ccccc4s3)cc2)CC(=O)N1 (racemic) [Example 94, 4-(3-(4-(benzo[d]thiazol-2-ylamino)phenoxy)pyrazin-2-yl)-6-methylpiperazin-2-one]	> 7.60
O=C(c1ccc(Oc2nccnc2-c2ccnc(C(F)(F)F)c2)cc1)c1nc2ccccc2[nH]1 [Example 104, (1H-BENZO[D]IMIDAZOL-2-YL)(4-(3-(2-(TRIFLUOROMETHYL)PYRIDIN-4-YL)PYRAZIN-2-YLOXY)PHENYL)METHANONE]	> 7.60
c1ccc2sc(Nc3ccc(Oc4nccnc4N4CCc5[nH]cnc5C4)cc3)nc2c1 [Example 80, N-(4-(3-(6,7-dihydro-1H-imidazo[4,5-c]pyridin-5(4H)-yl)pyrazin-2-yloxy)phenyl)-benzo[d]thiazol-2-amine]	7.00 to 7.60
O=C(c1ccc(Oc2nccnc2C2CCNCC2)cc1)c1nc2ccccc2[nH]1 [Example 230, (1H-benzo[d]imidazol-2-yl)(4-(3-(piperidin-4-yl)pyrazin-2-yloxy)phenyl)methanone]	> 7.60
O=C(c1ccc(Oc2nccnc2C2CCSCC2)cc1)c1nc2ccccc2[nH]1 [Example 222, 1H-BENZO[D]IMIDAZOLE-2-YL(4-(3-(TETRAHYDRO-2H-THIOPYRAN-4-YL)PYRAZIN-2-YLOXY)PHENYL)METHANONE]	> 7.60
NC(=O)C1CCN(c2nccnc2Oc2ccc(Nc3nc4ccccc4s3)cc2)CC1 [Example 81, 1-(3-(4-(benzo[d]thiazol-2-ylamino)phenoxy)pyrazin-2-yl)piperidine-4-carboxamide]	> 7.60
COC(=O)c1ccc(-c2nccnc2Oc2ccc(C(=O)c3nc4ccccc4[nH]3)cc2)cc1 [Example 126, methyl 4-(3-(4-(1H-benzo[d]imidazole-2-carbonyl)phenoxy)pyrazin-2-yl)benzoate]	> 7.60
c1ccc2sc(Nc3ccc(Oc4nccnc4C4CCOC4)cc3)nc2c1 (stereo not drawn) [Example 221, N-(4-(3-(TETRAHYDROFURAN-3-YL)PYRAZIN-2-YLOXY)PHENYL)BENZO[D]THIAZOL-2-AMINE]	> 7.60

Second part, the molecule after the results:

pIC50	Molecule
> 7.60	CC(=O)N1CCC(c2nccnc2Oc2ccc(Nc3nc4ccccc4s3)cc2)C1 (stereo not drawn) [Example 241, 1-(3-(3-(4-(benzo[d]thiazol-2-ylamino)phenoxy)pyrazin-2-yl)pyrrolidin-1-yl)ethanone]
> 7.60	CC(O)C(=O)N1CCC(c2nccnc2Oc2ccc(Nc3nc4ccccc4s3)cc2)CC1 (stereo not drawn) [Example 239, 1-(4-(3-(4-(benzo[d]thiazol-2-ylamino)phenoxy)pyrazin-2-yl)piperidin-1-yl)-2-hydroxypropan-1-one]
7.00 to 7.60	COC[C@H](C)NC(=O)c1nccnc1Oc1ccc(C(=O)c2nc3ccccc3[nH]2)cc1 [Example 256, (S)-3-(4-(1H-benzo[d]imidazole-2-carbonyl)phenoxy)-N-(1-methoxypropan-2-yl)pyrazine-2-carboxamide]

Same assay, conditions: PDE10 enzyme inhibition; average IC50 data for each compound; read-out: Average IC50

Molecule	pIC50
CC(C)(O)[C@H]1CCCN(c2nccnc2Oc2ccc(C(=O)c3nc4ccccc4[nH]3)cc2)C1 (stereo in doubt)	7.54
N#C[C@@H]1CCN(c2nccnc2Oc2ccc(C(=O)c3nc4ccccc4[nH]3)cc2)C1 (stereo in doubt)	8.88
O=C(c1ccc(Oc2nccnc2C2=CCOCC2)cc1)c1nc2ccccc2[nH]1	8.47
COc1ncccc1-c1nccnc1Oc1ccc([C@H](O)c2nc3ccccc3[nH]2)cc1 (stereo in doubt)	7.83
CO[C@@H]1CC=C(c2nccnc2Oc2ccc(C(=O)c3nc4ccccc4[nH]3)cc2)CC1 (stereo in doubt)	8.40
COC[C@@H]1CCCN1c1nccnc1Oc1ccc(C(=O)c2nc3ccccc3[nH]2)cc1	8.86

Now from value to molecule:

pIC50	Molecule
6.31	CN(C)CCOc1nccnc1Oc1ccc(C(=O)c2nc3ccccc3[nH]2)cc1 [drawing 857]
8.09	O=C(c1ccc(Oc2nccnc2C(=O)NCCc2ccccn2)cc1)c1nc2ccccc2[nH]1 [drawing 795]
8.57	COc1ncccc1-c1nccnc1Oc1ccc(Nc2nc3ccccc3s2)c(F)c1 [drawing 972]
6.78	CC1(C)C=C(c2nccnc2Oc2ccc(C(=O)c3nc4ccccc4[nH]3)cc2)C(=O)CC1 [drawing 916]
8.75	N#C[C@@H]1CCN(c2nccnc2Oc2ccc(C(=O)c3nc4ccccc4[nH]3)cc2)C1 [drawing 828]
5.80	O=C(c1ccc(Oc2nccnc2Cl)cc1)c1nc2ccc(F)cc2[nH]1 [drawing 813]
6.11	Fc1cc(Oc2cnccn2)ccc1Nc1nc2ccccc2s1 [drawing 878]
8.27	COc1cncc(-c2nccnc2Oc2ccc(C(=O)c3nc4ccccc4[nH]3)cc2)c1 [drawing 917]
8.73	CN1CCC(c2nccnc2Oc2ccc(C(=O)c3nc4ccccc4[nH]3)cc2)=CC1=O [drawing 921]
7.11	c1ccc2sc(Nc3ccc(Oc4nccnc4-c4ccc(N5CCOCC5)nc4)cc3)nc2c1 [drawing 762]
10.60	N#CCC(=O)N1CCC(c2nccnc2Oc2ccc(C(=O)c3nc4ccccc4[nH]3)cc2)CC1 [drawing 997]
9.02	O=C(c1ccc(Oc2nccnc2[C@H]2CCC[C@@H](O)C2)cc1)c1nc2ccccc2[nH]1 [drawing 909]
7.76	N#Cc1ccc(-c2nccnc2Oc2ccc(C(=O)c3nc4ccccc4[nH]3)cc2)cc1 [drawing 734]

Same assay, conditions: PDE10 enzyme inhibition; chiral compounds separated from racemic mixtures; read-out: IC50

pIC50	Molecule
> 7.60	CCOC(=O)[C@H]1CCCN(c2nccnc2Oc2ccc(C(=O)c3nc4ccccc4[nH]3)cc2)C1 [Example 264, (S)-ethyl 1-(3-(4-(1H-benzo[d]imidazole-2-carbonyl)phenoxy)pyrazin-2-yl)piperidine-3-carboxylate]
> 7.60	O=C(c1ccc(Oc2nccnc2[C@@H]2CCC[C@@H](O)C2)cc1)c1nc2ccccc2[nH]1 (stereo in doubt) [Example 274, (1H-benzo[d]imidazol-2-yl)(4-(3-((1R,3R)-3-hydroxycyclohexyl)pyrazin-2-yloxy)phenyl) methanone]
